Laboratory results as given in US20250255815A1, “NUCLEIC ACIDS ENCODING A CONSTITUTIVELY-ACTIVE CYCLIC GMP-AMP SYNTHASE AND IMMUNOGENIC DELIVERY VEHICLES FOR SAME” (Corner Therapeutics, Inc., priority 2022, published 2025).

What was measured:
[1] = test system: canine PBMCs; assay: IL-1β secretion by canine PBMCs (ELISA); type: cell-based; conditions: two days in culture, R848 1 μg/mL, 22:0 LYSO PC 82.5 μM
Procedure: (§1) Isolation of PBMCs from Whole Blood. PBMCs were isolated from whole blood using density gradient centrifugation with Ficoll-Paque PLUS (Cytivia). Whole blood was diluted 1:1 with PBS, layered on top of Ficoll-Paque PLUS and centrifuged at 1000×g for 30 minutes at room temperature. PBMCs were collected, washed twice in PBS, and incubated with Ack lysis buffer (Lonza) to remove any remaining red blood cells.
(§2) Cell Culture and Stimulation. Immediately following isolation, PBMCs were plated in RPMI medium containing 10% FBS, 50 units/mL penicillin, […] streptomycin, 2 mM L-glutamine, 1 mM sodium pyruvate, and […] beta-mercaptoethanol (R10 media). […]
(§3) Endpoint Analyses. […] Half of the media volume in the wells was collected for cytokine quantification by Enzyme-Linked Immunosorbent Assay (ELISA) or Lumit™ Bioluminescent assay, while the remaining media and cells were used to quantify cell viability by assessing metabolic activity.
(§4) Quantification of Cytokine Secretion. IL-1β secretion from human PBMCs was assessed using one of the following kits: ELISA MAX Deluxe Set Human IL-1β kit (Biolegend), Invitrogen Human IL-1β kit, or the Lumit™ Human IL-1β Immunoassay (Promega). IFNγ secretion from human PBMCs was assessed using the ELISA MAX Deluxe Set Human IFNγ (Biolegend) and TNFα secretion from human PBMCs was assessed using the Human TNFα Uncoated ELISA kit (Invitrogen). […]

[2] = test system: human PBMCs; assay: IFNγ and TNFα secretion by human PBMCs (ELISA); type: cell-based; conditions: two days post-hyperactivation
Procedure: Cell Culture and Stimulation. Immediately following isolation, PBMCs were plated in RPMI medium containing 10% FBS, 50 units/mL penicillin, […] streptomycin, 2 mM L-glutamine, 1 mM sodium pyruvate, and […] beta-mercaptoethanol (R10 media). Cells were plated at 1×10^5 (canine cells) or 1×10^6 (human cells) per well in 96-well flat bottom tissue culture plates. Lyophilized Vaccigrade R848 (Invivogen) was reconstituted and diluted according to manufacturer's recommendations and added to cells at a final concentration of 1 μg/mL. Immediately following, 22:0 LYSO PC was added to cells at a final concentration of 82.5 μM. […]
as §3, §4

[3] = test system: human PBMCs; assay: IL-1β secretion by human PBMCs (ELISA or Lumit); type: cell-based; conditions: two days in culture
Procedure: as §1, §2, §3, §4

[4] = test system: human leukemia monocytic cell line; conditions: cited from earlier work

Row | Molecule | IL-1β secretion [1] | IFNγ secretion, fold change per donor relative to R848 alone [2] | IL-1β secretion [3] | expression of interferon and interferon-stimulated genes [4]
1 | Nc1nc2c(ncn2[C@@H]2O[C@@H]3COP(=O)(O)O[C@H]4[C@@H](O)[C@H](n5cnc6c(N)ncnc65)O[C@@H]4COP(=O)(O)O[C@@H]2[C@@H]3O)c(=O)[nH]1 [2′3′cGAMP, 2′3′cyclic GMP-AMP, reference compound] | neither GM-CSF nor 2′3′cGAMP induced significant IL-1β secretion | neither GM-CSF nor 2′3′cGAMP elicited a substantial fold change in IFNγ secretion over R848 alone | – | –
2 | GM-CSF: human GM-CSF (Peprotech), innate agonist | neither GM-CSF nor 2′3′cGAMP induced significant IL-1β secretion | neither GM-CSF nor 2′3′cGAMP elicited a substantial fold change in IFNγ secretion over R848 alone | did not induce levels of IL-1β secretion from human PBMCs significantly above background levels | –
3 | cGASΔN: constitutively-active truncated human cGAS, C-terminal domain (SEQ ID NO:1) (protein, listed as Homo sapiens) PGASKLRAVLEKLKLSRDDISTAAGMVKGVVDHLLLRLKCDSAFRGVGLLNTGSYYEHVKISAPNEFDVMFKLEVPRIQLEEYSNTRAYYFVKFKRNPKENPLSQFLEGEILSASKMLSKFRKIIKEEINDIKDTDVIMKRKRGGSPAVTLLISEKISVDITLALESKSSWPASTQEGLRIQNWLSAKVRKQLRLKPFYLVPKHAKEGNGFQEETWRLSFSHIEKEILNNHGKSKTCCENKEEKCCRKDCLKLMKYLLEQLKERFKDKKHLDKFSSYHVKTAFFHVCTQNPQDSQWDRKDLGLCFDNCVTYFLQCLRTEKLENYFIPEFNLFSSNLIDKRSKEFLTKQIEYERNNEFPVFDEF | – | – | – | higher levels of expression of interferon and interferon-stimulated genes
